# Results: patent US11596631B2, “CDK12 inhibitors and their uses” (The University of Nottingham, priority 2016, dated 2023)
# Assays:
# [1] = test system: nuclear foci in DM1 fibroblasts; assay: nuclear foci assay (in situ hybridisation with Cy3 CAG10 probe, high content imaging); assay type: cell-based; settings: for activity in the nuclear foci assay (nuclear foci relative to DMSO treated cells): DM1 fibroblasts, 24 hours, dilution series; for reduction in foci on exposure for different lengths of time: 2 hours to 48 hours
# Protocol: Using a previously reported assay the PKIS collection was screened for compounds that reduce nuclear foci and the compounds were then analysed for their known selectivity profiles to identify the common kinase targets (Ketley, A. et al. (2014). Hum Mol Genet, 23: 1551-1562). […] Following treatment, fluorescent in situ hybridisation was performed with a cy3 labelled CAG10 probe, to visualize nuclear foci and cells were analysed on a Molecular Devices plate reader with customised MetaExpress software (Ketley, A. et al. (2014). Hum Mol Genet, 23: 1551-1562). Compounds that reduced nuclear foci in a concentration dependent manner, compared to DMSO treated cells were identified and prioritized for further study.
# […] Plates were analysed on a Molecular Devices Micro High Content Imaging system, with nine fields imaged per well to give approximately 100 cells per well, per compound treatment. The nuclear area was identified by Hoechst stain and the number, size and intensity of foci was determined by scoring adjacent pixels that were 80 grayscales or more above background.
# CDK9 = CDK9 (Homo sapiens, UniProt P50750); settings: previously reported IC50 values (FIG. 13); cited from earlier work
# CDK12 = molecular target: T1, CDK12 (Homo sapiens, UniProt Q9NYV4); assay: chemoproteomics dose-response competition binding with SNS-032 affinity matrix; settings: K562 or A204 cell extract, SNS-032 beads
# T1 construct: endogenous in cells; host or cells: K562 or A204 cell extract
# Text: FIG. 4: Chemoproteomics target deconvolution. IC50 values were generated by affinity capturing of kinases from K562 or A204 cell extract using beads derivatized with SNS-032, in the presence of different concentrations of free competing compound or vehicle (DMSO). pIC50 values are plotted against the pIC50 in the foci inhibition assay for each compound. A good correlation of kinase binding affinity with the inhibitory activity on foci is observed for CDKS, CDK7, CDK9, and CDK12. r: Pearson correlation coefficient; p: p-value (calculated probability).
# To determine the specific CDKs responsible for the reduction of nuclear foci it was sought to expand the target coverage within the CDK family by the immobilization of two of the active compounds containing a suitable secondary amine; SNS-032 and AT7519 (FIG. 10). […] To confirm that the K562, A204 and DM1 cell lines express the same kinases a whole proteome analysis was conducted. All CDK/PCTK proteins identified by profiling were also identified in the cells used for the phenotypic foci assay as follows: […]
# Affinity profiling was performed as described previously (Bantscheff, M. et al. (2007). Nat Biotechnol, 25: 1035-1044 and Bantscheff, M. et al. (2011). Nat Biotechnol, 29: 255-265). […] Proteins were alkylated, separated on 4-12% NuPAGE (Invitrogen), stained with colloidal Coomassie, and quantified by isobaric mass tagging and LC-MS/MS.
# [2] = test system: mutant DMPK transcripts in DM1 fibroblast cells; assay: RT-PCR / BpmI assay for repeat expansion transcripts; assay type: cell-based
# Protocol: (A) Ethidium bromide stained gel showing RT-PCR products from nuclear (N) and cytoplasmic (C) RNA fractions following amplification and BpmI digest of a fragment of DMPK. GAPDH is used as a loading control. […] (D) DM1 cells treated with SNS-032 for 2 hours.
# Reverse transcription was performed using 1 μg total RNA from compound-treated and untreated cells. […] For Genescan analysis primer N11 was labelled with FAM. Amplification was performed with a Tm of 58° C. The PCR product was subsequently heated to 95° C. for 2 minutes followed by cooling to 4° C. For Bpml restriction digestion analysis of DMPK PCR products, 8 μl of PCR mixture was digested overnight with restriction enzyme Bpml (NEB) in a total reaction volume of 20 μl at 37° C. The final products were analysed by electrophoresis at 90V with 3% agarose gels and the density of bands quantified using ImageJ software or by fragment analysis on an AB1377 sequencer followed by Genescan quantification.
# HSALR mice = assay: inhibitor treatment in DM1 mouse model; assay type: in vivo; settings: compared to vehicle control animals
# Protocol: FIG. 7: Inhibitor treatment in a DM1 mouse model (A) Combined myotonia grade scores in quadriceps, gastrocnemius and paraspinal muscles from HSALR mice following vehicle and dinaciclib compound treatment (n=6 per treatment group) (B) Myotonia grades by muscle type in dinaciclib and vehicle treated HSALR mice.
# To establish the in vivo effect of this inhibitor HSA^LR mice were treated by intraperitoneal injection for a 28 day treatment period comprising 12 injections in total.
# [3] = DM1 cells, 2 hours treatment, no recovery time
# CDK9, sequence (P50750 whole entry): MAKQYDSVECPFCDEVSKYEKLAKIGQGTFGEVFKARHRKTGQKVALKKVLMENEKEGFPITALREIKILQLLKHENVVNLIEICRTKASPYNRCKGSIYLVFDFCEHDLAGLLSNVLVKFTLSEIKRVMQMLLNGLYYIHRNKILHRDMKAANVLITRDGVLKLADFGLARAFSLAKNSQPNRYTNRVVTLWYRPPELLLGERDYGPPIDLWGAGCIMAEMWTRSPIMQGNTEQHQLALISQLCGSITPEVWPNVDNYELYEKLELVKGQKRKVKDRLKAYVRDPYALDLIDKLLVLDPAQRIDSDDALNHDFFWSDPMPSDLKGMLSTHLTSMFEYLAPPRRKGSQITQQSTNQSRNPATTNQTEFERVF
# CDK9, sequence (O60563 whole entry partner): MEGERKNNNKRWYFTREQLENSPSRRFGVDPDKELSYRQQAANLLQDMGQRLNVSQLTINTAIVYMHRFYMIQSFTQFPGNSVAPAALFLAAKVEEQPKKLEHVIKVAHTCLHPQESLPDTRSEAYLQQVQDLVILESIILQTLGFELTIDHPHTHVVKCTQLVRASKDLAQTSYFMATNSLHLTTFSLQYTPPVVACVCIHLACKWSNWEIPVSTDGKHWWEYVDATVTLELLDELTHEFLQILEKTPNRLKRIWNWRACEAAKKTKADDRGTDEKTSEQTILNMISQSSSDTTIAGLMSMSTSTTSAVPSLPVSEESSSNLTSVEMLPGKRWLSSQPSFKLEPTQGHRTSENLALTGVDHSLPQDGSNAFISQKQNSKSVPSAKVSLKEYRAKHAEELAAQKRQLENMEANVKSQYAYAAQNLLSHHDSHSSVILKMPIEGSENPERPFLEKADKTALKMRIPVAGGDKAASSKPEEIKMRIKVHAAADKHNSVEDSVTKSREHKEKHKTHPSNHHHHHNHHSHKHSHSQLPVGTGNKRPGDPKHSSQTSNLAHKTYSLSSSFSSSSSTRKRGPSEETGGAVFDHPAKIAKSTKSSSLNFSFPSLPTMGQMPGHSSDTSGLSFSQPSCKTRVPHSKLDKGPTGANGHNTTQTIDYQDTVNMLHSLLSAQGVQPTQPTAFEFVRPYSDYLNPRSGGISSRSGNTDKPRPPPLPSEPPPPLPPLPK
# T1 sequence (Q9NYV4 whole entry): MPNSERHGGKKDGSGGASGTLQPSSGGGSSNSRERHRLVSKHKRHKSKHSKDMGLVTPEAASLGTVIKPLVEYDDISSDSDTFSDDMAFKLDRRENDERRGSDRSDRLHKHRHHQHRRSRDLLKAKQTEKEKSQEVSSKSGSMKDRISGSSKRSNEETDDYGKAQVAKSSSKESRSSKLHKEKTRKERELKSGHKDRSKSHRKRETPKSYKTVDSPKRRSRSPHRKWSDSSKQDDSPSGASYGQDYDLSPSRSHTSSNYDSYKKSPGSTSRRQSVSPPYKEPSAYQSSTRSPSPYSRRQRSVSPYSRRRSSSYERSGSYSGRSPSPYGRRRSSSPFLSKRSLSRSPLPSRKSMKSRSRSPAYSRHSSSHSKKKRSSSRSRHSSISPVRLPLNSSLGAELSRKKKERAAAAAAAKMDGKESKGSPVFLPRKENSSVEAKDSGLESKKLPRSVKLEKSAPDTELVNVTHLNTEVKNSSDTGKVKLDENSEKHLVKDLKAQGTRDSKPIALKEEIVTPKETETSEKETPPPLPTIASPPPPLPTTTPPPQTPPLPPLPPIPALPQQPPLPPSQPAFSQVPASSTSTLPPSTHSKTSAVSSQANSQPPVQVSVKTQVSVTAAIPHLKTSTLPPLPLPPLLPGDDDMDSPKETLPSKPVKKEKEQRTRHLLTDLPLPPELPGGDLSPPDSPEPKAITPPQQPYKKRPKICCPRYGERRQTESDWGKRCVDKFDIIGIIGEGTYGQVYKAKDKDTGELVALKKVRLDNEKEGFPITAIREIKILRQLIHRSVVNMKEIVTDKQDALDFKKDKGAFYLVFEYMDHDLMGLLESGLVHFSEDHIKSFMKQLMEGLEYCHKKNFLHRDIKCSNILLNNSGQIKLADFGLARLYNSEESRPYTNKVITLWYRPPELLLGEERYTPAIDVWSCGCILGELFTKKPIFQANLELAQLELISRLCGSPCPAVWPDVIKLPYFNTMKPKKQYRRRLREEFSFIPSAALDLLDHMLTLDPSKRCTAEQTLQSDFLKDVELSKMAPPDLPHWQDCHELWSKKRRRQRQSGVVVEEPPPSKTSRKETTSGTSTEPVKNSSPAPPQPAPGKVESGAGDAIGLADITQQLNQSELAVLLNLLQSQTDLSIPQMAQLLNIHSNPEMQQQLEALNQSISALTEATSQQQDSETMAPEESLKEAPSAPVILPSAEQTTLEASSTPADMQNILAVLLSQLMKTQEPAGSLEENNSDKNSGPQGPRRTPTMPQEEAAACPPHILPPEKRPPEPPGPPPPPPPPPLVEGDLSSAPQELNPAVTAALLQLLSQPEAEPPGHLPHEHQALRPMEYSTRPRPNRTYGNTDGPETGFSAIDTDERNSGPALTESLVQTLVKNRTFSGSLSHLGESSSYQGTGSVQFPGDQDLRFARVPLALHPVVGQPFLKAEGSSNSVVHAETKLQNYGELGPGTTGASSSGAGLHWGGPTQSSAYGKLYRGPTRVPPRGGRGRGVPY
# T1 sequence (O75909 whole entry partner): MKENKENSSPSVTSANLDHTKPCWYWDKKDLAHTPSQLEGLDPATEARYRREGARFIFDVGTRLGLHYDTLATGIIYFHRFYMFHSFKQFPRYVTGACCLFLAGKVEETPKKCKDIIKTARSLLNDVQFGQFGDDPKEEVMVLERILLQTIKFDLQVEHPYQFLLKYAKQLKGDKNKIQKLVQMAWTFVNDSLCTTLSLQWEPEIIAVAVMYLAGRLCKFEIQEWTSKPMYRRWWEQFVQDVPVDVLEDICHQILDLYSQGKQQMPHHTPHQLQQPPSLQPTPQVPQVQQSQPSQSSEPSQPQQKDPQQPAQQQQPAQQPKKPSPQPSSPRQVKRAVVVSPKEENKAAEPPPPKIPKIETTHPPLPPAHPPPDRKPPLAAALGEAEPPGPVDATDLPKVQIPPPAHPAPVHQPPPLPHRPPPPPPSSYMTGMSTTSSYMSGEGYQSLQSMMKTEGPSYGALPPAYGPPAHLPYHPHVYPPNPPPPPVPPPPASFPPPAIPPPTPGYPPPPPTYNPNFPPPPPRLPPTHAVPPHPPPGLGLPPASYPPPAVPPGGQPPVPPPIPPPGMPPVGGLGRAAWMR
Compound,activity in the nuclear foci assay (nuclear foci relative to DMSO treated cells) [1],potency against CDK9 (CDK9),"cells without nuclear foci ([1]; DM1 cells, 2 hours treatment, 48 hours recovery) [%]","cells without nuclear foci ([1]; DM1 cells, 2 hours treatment, 72 hours recovery) [%]","cells with more than 5 foci [1, 3] [%]","cells with no foci [1, 3] [%]",treatment time after which foci reduction was effective ([1]; DM1 fibroblast cells) [h],reduction in foci on exposure for different lengths of time ([1]; DM1 fibroblast cells),"activity against the CDK family, in particular CDK12 (CDK12)",location of repeat expansion transcripts after treatment (nuclear and cytoplasmic extracts) [2],"decrease in the relative proportion of repeat expansion transcripts compared to wild type transcripts in the nucleus ([2]; 1 μM, 24 hours, Genescan) [%]",centralised nuclei in muscle fibres (laminin stain) (HSALR mice)
O=C(NC1CCNCC1)c1[nH]ncc1NC(=O)c1c(Cl)cccc1Cl [AT-7519],high activity,highest potency,–,–,–,–,–,–,–,–,–,–
CC(C)(C)c1cnc(CSc2cnc(NC(=O)C3CCNCC3)s2)o1 [SNS-032],high activity,highest potency,14,36,28,10,2,significant reduction in foci,–,–,–,–
CCc1cnn2c(NCc3ccc[n+]([O-])c3)cc(N3CCCC[C@H]3CCO)nc12 [dinaciclib],significantly increased activity,–,–,–,–,–,–,significant reduction in foci,most active inhibitor,still retained within the nuclear fraction,59,reduction in centralised nuclei
